# Laboratory results reported in US8680052B1, “Methods of treating, reducing the incidence of, and/or preventing ischemic events” (The Medicines Company, priority 2013, dated 2014).
# System: platelets
# Experiment: Example 4: light transmission aggregometry (LTA) induced by 5 and 20 μM ADP
# Assay type: in vivo, human
# Procedure: The study involved 12 patients who met the criteria of being 18-75 years of age, having coronary artery disease (CAD) documented by a previous MI or coronary revascularization, and taking 81 mg of aspirin daily. […] Prohibited concomitant medications included strong and potent CYP3A inhibitors, simvastatin and lovastatin at doses more than 40 mg/day, omeprazole or esomeprazole, and digoxin. Use of non-steroidal anti-inflammatory agents was discouraged during study participation but not prohibited.
# Each patient was administered a 30 μg/kg bolus of cangrelor followed immediately by a 2 hr infusion at a rate of 4.0 μg/kg/min. A loading dose of ticagrelor (180 mg) was given after 0.5 hr or 1.25 hr (n=6 for each). Blood for pharmacodynamic platelet function studies was taken after 0.5 or 1.25 hr (corresponding to the time of ticagrelor load, n=6 for each), and then at 1.75, 2, 2.25, 2.5, 2.75, 3, 4, and 5.25 hr. Patients were assigned randomly to receive either 6 (n=6) or 7 (n=6) doses of ticagrelor to be taken every 12 hours following the discontinuation of the infusion of cangrelor. On study day 5, each patient was administered a 30 μg/kg bolus of cangrelor followed immediately by a 2 hr infusion at a rate of 4.0 μg/kg/min. Blood for pharmacodynamic assessment was taken after 1 and 2 hr. Adverse events were queried throughout study participation that ended with a telephone interview performed on study day 10-12.
# Pharmacodynamic assessment included light transmission aggregometry (LTA), VerifyNow® P2Y12 assay, vasodilator-stimulated phosphoprotein (VASP) index, and platelet activation measured with the use of flow cytometry. Assessment of LTA, VerifyNow®, and platelet activation with the use of flow cytometry was performed within 30 min of blood being taken. In the case of flow cytometry, samples were processed to fixation and then batched for analysis. For VASP, index samples were batched and processed as recommended by the vendor within 2 h of blood being taken. This approach limited the time from fixation of VASP index to flow analysis to less than 1 h.
# LTA induced by 5 μM and 20 μM adenosine diphosphate (ADP) was quantified ex vivo (i.e. in non-adjusted platelet rich plasma). Platelet-poor plasma was set as 100% aggregation, and both maximal (peak) and terminal (at 300 s) aggregation were measured with a PAP4 aggregometer (BioData, Horsham, Pa.). VerifyNow® P2Y12 assay (Accumetrics Inc, San Diego, Calif.) that measures the effects of drugs on the P2Y12 receptor by activating platelets with prostaglandin El in addition to ADP was used in accordance with the instructions provided by the manufacturer. Platelet reactivity was expressed in P2Y12 reaction units (PRU). Activation of platelets was identified with the use of flow cytometry as previously described.^17. And to determine the VASP index, a commercially available kit (Diagnostica Stago, Inc, Parsippany NJ) was used. ^17 Schneider D J, Sobel B E. Streamlining the design of promising clinical trials: in-vitro testing of antithrombotic regimens and multiple agonists of platelet activation. Coron Artery Dis. 2009; 20:175-8.
# [1] = reference 5.25 h, Ticagrelor at 0.5 h
# [2] = reference 5.25 h, Ticagrelor at 1.25 h
# [3] = ticagrelor at 0.5 hr, 1.75 hr later (at 2.25 hr)
# [4] = ticagrelor at 1.25 hr, 1.75 hr after the loading dose (at 3.0 hr)
smiles,measurement,setting,value
CCCSc1nc(N[C@@H]2C[C@H]2c2ccc(F)c(F)c2)c2nnn([C@@H]3C[C@H](OCCO)[C@@H](O)[C@H]3O)c2n1 [ticagrelor],"IPA, 5 μM ADP, LTA","2.25 h, All",87 ± 8%
same,"IPA, 20 μM ADP, LTA","2.25 h, All",83 ± 14%
same,"PR, 5 μM ADP, LTA","2.25 h, All",7 ± 5%
same,"PR, 20 μM ADP, LTA","2.25 h, All",12 ± 11%
same,"IPA, 5 μM ADP, LTA","2.25 h, Ticagrelor at 0.5 h",84 ± 10%
same,"IPA, 20 μM ADP, LTA","2.25 h, Ticagrelor at 0.5 h",82 ± 13%
same,"PR, 5 μM ADP, LTA","2.25 h, Ticagrelor at 0.5 h",7.7 ± 5.9%
same,"PR, 20 μM ADP, LTA","2.25 h, Ticagrelor at 0.5 h",13 ± 9.3%
same,"IPA, 5 μM ADP, LTA","2.25 h, Ticagrelor at 1.25 h",89 ± 5%
same,"IPA, 20 μM ADP, LTA","2.25 h, Ticagrelor at 1.25 h",84 ± 17%
same,"PR, 5 μM ADP, LTA","2.25 h, Ticagrelor at 1.25 h",5.3 ± 3.6%
same,"PR, 20 μM ADP, LTA","2.25 h, Ticagrelor at 1.25 h",11 ± 12%
same,"IPA, 5 μM ADP, LTA","2.5 h, All",79 ± 15%
same,"IPA, 20 μM ADP, LTA","2.5 h, All",72 ± 26%
same,"PR, 5 μM ADP, LTA","2.5 h, All",10 ± 7%
same,"PR, 20 μM ADP, LTA","2.5 h, All",19 ± 16%
same,"IPA, 5 μM ADP, LTA","2.5 h, Ticagrelor at 0.5 h",82 ± 13%
same,"IPA, 20 μM ADP, LTA","2.5 h, Ticagrelor at 0.5 h",78 ± 21%
same,"PR, 5 μM ADP, LTA","2.5 h, Ticagrelor at 0.5 h",10 ± 5.7%
same,"PR, 20 μM ADP, LTA","2.5 h, Ticagrelor at 0.5 h",16 ± 15%
same,"IPA, 5 μM ADP, LTA","2.5 h, Ticagrelor at 1.25 h",76 ± 18%
same,"IPA, 20 μM ADP, LTA","2.5 h, Ticagrelor at 1.25 h",65 ± 30%
same,"PR, 5 μM ADP, LTA","2.5 h, Ticagrelor at 1.25 h",11 ± 9%
same,"PR, 20 μM ADP, LTA","2.5 h, Ticagrelor at 1.25 h",21 ± 17%
same,"IPA, 5 μM ADP, LTA","2.75 h, All",86 ± 11%
same,"IPA, 20 μM ADP, LTA","2.75 h, All",86 ± 15%
same,"PR, 5 μM ADP, LTA","2.75 h, All",5.8 ± 3%
same,"PR, 20 μM ADP, LTA","2.75 h, All",10 ± 9.2%
same,"IPA, 5 μM ADP, LTA","2.75 h, Ticagrelor at 0.5 h",87 ± 7%
same,"IPA, 20 μM ADP, LTA","2.75 h, Ticagrelor at 0.5 h",84 ± 15%
same,"PR, 5 μM ADP, LTA","2.75 h, Ticagrelor at 0.5 h",6.7 ± 4.1%
same,"PR, 20 μM ADP, LTA","2.75 h, Ticagrelor at 0.5 h",12 ± 11%
same,"IPA, 5 μM ADP, LTA","2.75 h, Ticagrelor at 1.25 h",85 ± 15%
same,"IPA, 20 μM ADP, LTA","2.75 h, Ticagrelor at 1.25 h",87 ± 15%
same,"PR, 5 μM ADP, LTA","2.75 h, Ticagrelor at 1.25 h",4.8 ± 0.8%
same,"PR, 20 μM ADP, LTA","2.75 h, Ticagrelor at 1.25 h",7.8 ± 7.2%
same,"IPA, 5 μM ADP, LTA","3 h, All",86 ± 17%
same,"IPA, 20 μM ADP, LTA","3 h, All",90 ± 9%
same,"PR, 5 μM ADP, LTA","3 h, All",5.5 ± 5.2%
same,"PR, 20 μM ADP, LTA","3 h, All",7.1 ± 6.3%
same,"IPA, 5 μM ADP, LTA","3 h, Ticagrelor at 0.5 h",85 ± 15%
same,"IPA, 20 μM ADP, LTA","3 h, Ticagrelor at 0.5 h",87 ± 10%
same,"PR, 5 μM ADP, LTA","3 h, Ticagrelor at 0.5 h",8 ± 6.5%
same,"PR, 20 μM ADP, LTA","3 h, Ticagrelor at 0.5 h",10 ± 7.6%
same,"IPA, 5 μM ADP, LTA","3 h, Ticagrelor at 1.25 h",87 ± 21%
same,"IPA, 20 μM ADP, LTA","3 h, Ticagrelor at 1.25 h",93 ± 7%
same,"PR, 5 μM ADP, LTA","3 h, Ticagrelor at 1.25 h",3 ± 1.5%
same,"PR, 20 μM ADP, LTA","3 h, Ticagrelor at 1.25 h",4.5 ± 3.4%
same,"IPA, 5 μM ADP, LTA","4 h, All",88 ± 9%
same,"IPA, 20 μM ADP, LTA","4 h, All",94 ± 4%
same,"PR, 5 μM ADP, LTA","4 h, All",5.5 ± 3.3%
same,"PR, 20 μM ADP, LTA","4 h, All",4.6 ± 3.6%
same,"IPA, 5 μM ADP, LTA","4 h, Ticagrelor at 0.5 h",87 ± 5%
same,"IPA, 20 μM ADP, LTA","4 h, Ticagrelor at 0.5 h",91 ± 4%
same,"PR, 5 μM ADP, LTA","4 h, Ticagrelor at 0.5 h",7.3 ± 3.9%
same,"PR, 20 μM ADP, LTA","4 h, Ticagrelor at 0.5 h",6.7 ± 3.7%
same,"IPA, 5 μM ADP, LTA","4 h, Ticagrelor at 1.25 h",89 ± 12%
same,"IPA, 20 μM ADP, LTA","4 h, Ticagrelor at 1.25 h",96 ± 4%
same,"PR, 5 μM ADP, LTA","4 h, Ticagrelor at 1.25 h",3.7 ± 1%
same,"PR, 20 μM ADP, LTA","4 h, Ticagrelor at 1.25 h",2.5 ± 1.9%
same,residual platelet reactivity,"12 hours after the last dose of ticagrelor, study day 5",12±9%
same,residual platelet reactivity,"at 2.5 hr, ticagrelor 180 mg given at 0.5 hr of 2 hr cangrelor infusion",16±15%
same,"IPA, 5 μM ADP, LTA","reference 5.25 h, All",94 ± 5%
same,"IPA, 20 μM ADP, LTA","reference 5.25 h, All",95 ± 4%
same,"PR, 5 μM ADP, LTA","reference 5.25 h, All",3.1 ± 2.8%
same,"PR, 20 μM ADP, LTA","reference 5.25 h, All",4 ± 3.4%
same,"IPA, 5 μM ADP, LTA",[1],92 ± 6%
same,"IPA, 20 μM ADP, LTA",[1],92 ± 4%
same,"PR, 5 μM ADP, LTA",[1],4.2 ± 2%
same,"PR, 20 μM ADP, LTA",[1],5.8 ± 3.1%
same,"IPA, 5 μM ADP, LTA",[2],97 ± 4%
same,"IPA, 20 μM ADP, LTA",[2],97 ± 4%
same,"PR, 5 μM ADP, LTA",[2],2 ± 2.3%
same,"PR, 20 μM ADP, LTA",[2],2.2 ± 2.7%
same,extent of inhibition,[3],82±13%
same,residual platelet reactivity,[3],13±9.3%
same,extent of inhibition,[4],93±7%
same,residual platelet reactivity,[4],4.5±3.4%
